Measurements as given in the kinase profiling compilation of Christmann-Franck et al. (2016).

Tests used:
Experiment in all cases: radiometric filter-binding kinase assay, Kinase HotSpot
Conditions in all cases: compound 0.5 µM; ATP 10 µM
[1] = target: ABL1 (human) (UniProt P00519)
[2] = target: AURKA (human) (UniProt O14965)
[3] = target: BLK (human) (UniProt P51451)
[4] = target: BRSK2 (human) (UniProt Q8IWQ3)
[5] = target: CAMK2B (human) (UniProt Q13554)
[6] = target: CDK3 CCNE1 (human) (UniProt Q00526+P24864)
[7] = target: CDK4 CCND1 (human) (UniProt P24385+P11802)
[8] = target: CLK3 (human) (UniProt P49761)
[9] = target: CSNK2A1 (human) (UniProt P68400)
[10] = target: DCLK2 (human) (UniProt Q8N568)
[11] = target: DDR2 (human) (UniProt Q16832)
[12] = target: EPHB3 (human) (UniProt P54753)
[13] = target: FGFR1 (human) (UniProt P11362)
[14] = target: GRK4 (human) (UniProt P32298)
[15] = target: IKBKB (human) (UniProt O14920)
[16] = target: LTK (human) (UniProt P29376)
[17] = target: MAPK1 (human) (UniProt P28482)
[18] = target: MAPK14 (human) (UniProt Q16539)
[19] = target: MAPKAPK2 (human) (UniProt P49137)
[20] = target: MAPKAPK5 (human) (UniProt Q8IW41)
[21] = target: MKNK2 (human) (UniProt Q9HBH9)
[22] = target: MLTK (human) (UniProt Q9NYL2)
[23] = target: NEK4 (human) (UniProt P51957)
[24] = target: NTRK3 (human) (UniProt Q16288)
[25] = target: PHKG1 (human) (UniProt Q16816)
[26] = target: PRKCD (human) (UniProt Q05655)
[27] = target: PRKCH (human) (UniProt P24723)
[28] = target: RET (human) (UniProt P07949)
[29] = target: RPS6KA1 KD1 KD2 (human) (UniProt Q15418)
[30] = target: RPS6KA2 KD1 KD2 (human) (UniProt Q15349)
[31] = target: RPS6KA4 KD2 (human) (UniProt O75676)
[32] = target: RPS6KA6 KD1 KD2 (human) (UniProt Q9UK32)
[33] = target: RPS6KB2 (human) (UniProt Q9UBS0)
[34] = target: STK17A (human) (UniProt Q9UEE5)
[35] = target: STK24 (human) (UniProt Q9Y6E0)
[36] = target: TAOK1 (human) (UniProt Q7L7X3)
[37] = target: TAOK2 (human) (UniProt Q9UL54)
[38] = target: TXK (human) (UniProt P42681)
[39] = target: TYRO3 (human) (UniProt Q06418)
[40] = target: ULK2 (human) (UniProt Q8IYT8)
[41] = target: WEE1 (human) (UniProt P30291)
[42] = target: YES1 (human) (UniProt P07947)

Sequence of NEK4 (human) (P51957 whole entry, looked up): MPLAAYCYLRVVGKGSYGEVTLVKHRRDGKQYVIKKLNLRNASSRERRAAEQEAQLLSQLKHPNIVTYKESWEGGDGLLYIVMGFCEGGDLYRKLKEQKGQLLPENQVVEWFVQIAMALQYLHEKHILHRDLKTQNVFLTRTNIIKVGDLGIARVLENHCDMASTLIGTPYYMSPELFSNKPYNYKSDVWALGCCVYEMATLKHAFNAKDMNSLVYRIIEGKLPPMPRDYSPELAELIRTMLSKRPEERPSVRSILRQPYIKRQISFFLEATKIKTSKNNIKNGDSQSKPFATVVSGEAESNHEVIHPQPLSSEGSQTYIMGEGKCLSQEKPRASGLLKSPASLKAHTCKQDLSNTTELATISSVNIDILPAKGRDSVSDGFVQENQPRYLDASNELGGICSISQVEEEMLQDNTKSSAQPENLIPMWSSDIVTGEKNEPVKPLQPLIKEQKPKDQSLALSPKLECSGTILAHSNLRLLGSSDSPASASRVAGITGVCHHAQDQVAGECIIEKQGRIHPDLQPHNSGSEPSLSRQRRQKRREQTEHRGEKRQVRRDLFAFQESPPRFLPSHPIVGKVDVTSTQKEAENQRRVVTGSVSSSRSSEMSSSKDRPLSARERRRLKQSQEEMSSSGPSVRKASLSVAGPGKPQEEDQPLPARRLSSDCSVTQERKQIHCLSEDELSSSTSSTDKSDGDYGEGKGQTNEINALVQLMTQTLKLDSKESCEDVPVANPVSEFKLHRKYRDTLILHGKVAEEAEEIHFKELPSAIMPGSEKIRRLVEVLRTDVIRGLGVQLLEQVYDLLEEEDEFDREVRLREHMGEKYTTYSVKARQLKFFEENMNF
Sequence of TAOK1 (human) (Q7L7X3 whole entry, looked up): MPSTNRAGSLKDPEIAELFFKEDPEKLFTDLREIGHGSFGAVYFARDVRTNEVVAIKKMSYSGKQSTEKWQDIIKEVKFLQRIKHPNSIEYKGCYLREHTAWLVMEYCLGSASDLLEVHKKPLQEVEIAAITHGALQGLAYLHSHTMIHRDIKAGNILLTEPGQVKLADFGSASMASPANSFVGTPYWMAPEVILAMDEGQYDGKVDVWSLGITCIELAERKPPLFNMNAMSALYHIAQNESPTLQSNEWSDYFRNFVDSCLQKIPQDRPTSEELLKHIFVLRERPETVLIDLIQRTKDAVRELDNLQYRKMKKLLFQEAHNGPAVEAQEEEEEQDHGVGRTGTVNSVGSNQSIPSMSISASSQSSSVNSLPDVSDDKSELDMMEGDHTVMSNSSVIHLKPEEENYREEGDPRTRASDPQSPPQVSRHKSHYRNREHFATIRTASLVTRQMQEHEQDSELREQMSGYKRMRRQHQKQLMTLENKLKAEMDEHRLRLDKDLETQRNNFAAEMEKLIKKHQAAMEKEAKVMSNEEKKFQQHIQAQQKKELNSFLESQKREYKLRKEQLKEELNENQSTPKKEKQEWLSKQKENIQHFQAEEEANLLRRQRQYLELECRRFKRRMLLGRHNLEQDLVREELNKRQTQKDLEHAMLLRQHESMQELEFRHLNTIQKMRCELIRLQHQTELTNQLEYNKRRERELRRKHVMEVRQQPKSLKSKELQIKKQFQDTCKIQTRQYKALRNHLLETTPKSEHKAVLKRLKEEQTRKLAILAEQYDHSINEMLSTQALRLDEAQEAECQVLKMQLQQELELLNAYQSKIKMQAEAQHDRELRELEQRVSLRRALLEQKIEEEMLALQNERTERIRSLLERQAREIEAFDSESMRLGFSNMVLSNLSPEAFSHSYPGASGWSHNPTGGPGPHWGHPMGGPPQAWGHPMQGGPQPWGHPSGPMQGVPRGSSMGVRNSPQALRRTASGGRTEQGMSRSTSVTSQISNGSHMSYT
Sequence of PRKCH (human) (P24723 whole entry, looked up): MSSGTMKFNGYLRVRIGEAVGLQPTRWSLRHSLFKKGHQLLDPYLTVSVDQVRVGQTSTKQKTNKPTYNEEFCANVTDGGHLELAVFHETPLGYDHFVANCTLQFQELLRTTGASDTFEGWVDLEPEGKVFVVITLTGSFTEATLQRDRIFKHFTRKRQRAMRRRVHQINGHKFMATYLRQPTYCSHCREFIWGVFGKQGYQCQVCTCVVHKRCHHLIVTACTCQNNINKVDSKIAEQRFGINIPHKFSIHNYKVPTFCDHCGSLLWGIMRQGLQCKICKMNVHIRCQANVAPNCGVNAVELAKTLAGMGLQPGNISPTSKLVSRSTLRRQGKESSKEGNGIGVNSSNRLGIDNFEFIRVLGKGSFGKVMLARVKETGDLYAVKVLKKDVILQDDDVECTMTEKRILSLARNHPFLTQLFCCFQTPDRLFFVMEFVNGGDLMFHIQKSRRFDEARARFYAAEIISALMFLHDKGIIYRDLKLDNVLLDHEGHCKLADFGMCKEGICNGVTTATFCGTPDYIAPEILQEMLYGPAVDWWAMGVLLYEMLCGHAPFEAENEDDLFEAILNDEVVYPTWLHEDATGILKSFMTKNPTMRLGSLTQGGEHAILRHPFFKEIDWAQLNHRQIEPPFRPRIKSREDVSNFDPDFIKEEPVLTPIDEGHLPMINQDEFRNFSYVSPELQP
Sequence of LTK (human) (P29376 whole entry, looked up): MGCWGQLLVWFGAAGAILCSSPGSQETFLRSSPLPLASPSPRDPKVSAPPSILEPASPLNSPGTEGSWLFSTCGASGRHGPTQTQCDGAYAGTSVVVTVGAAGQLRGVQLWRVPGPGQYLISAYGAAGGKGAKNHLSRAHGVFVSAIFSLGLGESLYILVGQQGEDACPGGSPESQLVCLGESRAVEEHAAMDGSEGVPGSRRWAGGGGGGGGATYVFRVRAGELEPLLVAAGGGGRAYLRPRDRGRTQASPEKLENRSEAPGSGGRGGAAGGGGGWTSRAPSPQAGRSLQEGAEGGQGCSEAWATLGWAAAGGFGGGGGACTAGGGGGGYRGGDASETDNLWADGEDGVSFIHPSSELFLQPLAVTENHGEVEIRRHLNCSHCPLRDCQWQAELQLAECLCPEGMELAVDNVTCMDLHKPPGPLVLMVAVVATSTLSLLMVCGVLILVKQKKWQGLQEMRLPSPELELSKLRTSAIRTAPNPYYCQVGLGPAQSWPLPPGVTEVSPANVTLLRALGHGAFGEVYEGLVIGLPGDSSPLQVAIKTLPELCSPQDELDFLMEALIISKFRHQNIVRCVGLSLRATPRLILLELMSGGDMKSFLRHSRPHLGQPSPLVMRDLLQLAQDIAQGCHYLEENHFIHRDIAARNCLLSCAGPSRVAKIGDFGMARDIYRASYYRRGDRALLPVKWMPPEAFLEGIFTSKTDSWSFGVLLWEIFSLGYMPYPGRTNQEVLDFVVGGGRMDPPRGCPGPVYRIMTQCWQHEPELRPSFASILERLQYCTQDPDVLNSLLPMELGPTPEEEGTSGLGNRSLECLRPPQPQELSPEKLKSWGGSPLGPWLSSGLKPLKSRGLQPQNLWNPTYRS
Sequence of PRKCD (human) (Q05655 whole entry, looked up): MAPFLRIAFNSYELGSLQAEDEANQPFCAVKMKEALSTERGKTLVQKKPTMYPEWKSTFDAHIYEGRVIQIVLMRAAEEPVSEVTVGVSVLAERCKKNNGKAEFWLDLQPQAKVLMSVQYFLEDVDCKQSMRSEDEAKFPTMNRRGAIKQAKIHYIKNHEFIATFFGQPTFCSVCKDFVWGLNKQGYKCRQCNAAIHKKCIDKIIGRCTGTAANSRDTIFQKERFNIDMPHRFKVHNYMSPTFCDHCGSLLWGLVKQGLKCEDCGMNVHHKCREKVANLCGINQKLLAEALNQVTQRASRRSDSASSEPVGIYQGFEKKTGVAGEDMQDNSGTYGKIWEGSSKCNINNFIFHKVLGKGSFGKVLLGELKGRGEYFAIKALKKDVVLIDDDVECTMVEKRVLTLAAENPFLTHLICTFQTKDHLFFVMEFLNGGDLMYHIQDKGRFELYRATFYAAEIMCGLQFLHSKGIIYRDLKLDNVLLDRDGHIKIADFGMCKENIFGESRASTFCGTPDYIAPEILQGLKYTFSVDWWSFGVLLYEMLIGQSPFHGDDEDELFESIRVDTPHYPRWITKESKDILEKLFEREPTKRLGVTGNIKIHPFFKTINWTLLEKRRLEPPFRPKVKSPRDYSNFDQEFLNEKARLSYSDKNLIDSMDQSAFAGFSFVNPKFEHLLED
Sequence of NTRK3 (human) (Q16288 whole entry, looked up): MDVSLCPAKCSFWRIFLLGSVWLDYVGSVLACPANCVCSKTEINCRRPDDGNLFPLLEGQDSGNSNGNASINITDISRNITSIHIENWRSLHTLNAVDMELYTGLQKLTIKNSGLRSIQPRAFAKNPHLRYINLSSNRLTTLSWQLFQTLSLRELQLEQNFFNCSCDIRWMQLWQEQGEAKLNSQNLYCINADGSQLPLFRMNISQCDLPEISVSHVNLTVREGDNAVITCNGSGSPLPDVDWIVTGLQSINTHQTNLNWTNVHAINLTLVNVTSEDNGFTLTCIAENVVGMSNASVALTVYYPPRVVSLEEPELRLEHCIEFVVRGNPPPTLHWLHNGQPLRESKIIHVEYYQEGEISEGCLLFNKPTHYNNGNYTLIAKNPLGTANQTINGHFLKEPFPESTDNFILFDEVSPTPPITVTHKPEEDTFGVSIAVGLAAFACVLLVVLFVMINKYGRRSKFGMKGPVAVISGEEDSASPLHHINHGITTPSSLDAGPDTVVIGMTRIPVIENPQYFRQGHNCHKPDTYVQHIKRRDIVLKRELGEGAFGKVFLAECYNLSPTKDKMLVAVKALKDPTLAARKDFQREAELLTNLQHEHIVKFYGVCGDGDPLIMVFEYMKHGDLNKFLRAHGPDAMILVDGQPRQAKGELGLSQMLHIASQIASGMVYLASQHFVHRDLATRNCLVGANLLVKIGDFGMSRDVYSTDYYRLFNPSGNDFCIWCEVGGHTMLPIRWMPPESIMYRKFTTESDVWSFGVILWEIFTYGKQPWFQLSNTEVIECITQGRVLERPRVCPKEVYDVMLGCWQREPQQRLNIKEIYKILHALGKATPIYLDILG

## CN(C)C[C@H]1CCn2c(c(C3=C(c4cn(C)c5ccccc45)C(=O)NC3=O)c3ccccc32)C1
[1]
  residual activity: 98%
[2]
  residual activity: 87.7%
[3]
  residual activity: 103%
[4]
  residual activity: 102%
[5]
  residual activity: 96.9%
[6]
  residual activity: 62.4%
[7]
  residual activity: 86.9%
[8]
  residual activity: 94.7%
[9]
  residual activity: 98.9%
[10]
  residual activity: 97.8%
[11]
  residual activity: 96%
[12]
  residual activity: 105%
[13]
  residual activity: 87.8%
[14]
  residual activity: 76.4%
[15]
  residual activity: 105%
[16]
  residual activity: 101%
[17]
  residual activity: 101%
[18]
  residual activity: 108%
[19]
  residual activity: 102%
[20]
  residual activity: 95.4%
[21]
  residual activity: 85.8%
[22]
  residual activity: 87.3%
[23]
  residual activity: 96.7%
[24]
  residual activity: 75%
[25]
  residual activity: 78.4%
[26]
  residual activity: 8.11%
[27]
  residual activity: 7.84%
[28]
  residual activity: 99.7%
[29]
  residual activity: 5.9%
[30]
  residual activity: 3.57%
[31]
  residual activity: 33.3%
[32]
  residual activity: 2.94%
[33]
  residual activity: 67.6%
[34]
  residual activity: 87.6%
[35]
  residual activity: 66.5%
[36]
  residual activity: 93%
[37]
  residual activity: 87.7%
[38]
  residual activity: 103%
[39]
  residual activity: 99.3%
[40]
  residual activity: 105%
[41]
  residual activity: 101%
[42]
  residual activity: 95.3%

## CN([C@@H](Cc1ccc(OS(=O)(=O)c2cccc3cnccc23)cc1)C(=O)N1CCN(c2ccccc2)CC1)S(=O)(=O)c1cccc2cnccc12
[1]
  residual activity: 100%
[2]
  residual activity: 86.2%
[3]
  residual activity: 102%
[4]
  residual activity: 100%
[5]
  residual activity: 97.8%
[6]
  residual activity: 101%
[7]
  residual activity: 95.3%
[8]
  residual activity: 103%
[9]
  residual activity: 100%
[10]
  residual activity: 94.1%
[11]
  residual activity: 96.9%
[12]
  residual activity: 97%
[13]
  residual activity: 103%
[14]
  residual activity: 96.5%
[15]
  residual activity: 96.7%
[16]
  residual activity: 102%
[17]
  residual activity: 95.5%
[18]
  residual activity: 91%
[19]
  residual activity: 103%
[20]
  residual activity: 97%
[21]
  residual activity: 104%
[22]
  residual activity: 103%
[23]
  residual activity: 99.5%
[24]
  residual activity: 97.5%
[25]
  residual activity: 93.4%
[26]
  residual activity: 93%
[27]
  residual activity: 89.8%
[28]
  residual activity: 105%
[29]
  residual activity: 109%
[30]
  residual activity: 102%
[31]
  residual activity: 98.7%
[32]
  residual activity: 100%
[33]
  residual activity: 96.6%
[34]
  residual activity: 104%
[35]
  residual activity: 102%
[36]
  residual activity: 98.7%
[37]
  residual activity: 98.3%
[38]
  residual activity: 94.3%
[39]
  residual activity: 101%
[40]
  residual activity: 106%
[41]
  residual activity: 87.7%
[42]
  residual activity: 110%
